In US20240059658A1 (Emory University, priority 2019, published 2024):
Where two headings read alike, the source gives them in different places.

System: EU-1
Assay: WST cytotoxicity assay, cancer cell EU-1
Format: cell-based, human
Settings: no other cell line named in the cell, read-out: Cancer cell (EU-1) cytotoxicity IC50
Experimental: This study used two ALL cell lines (EU-1 and EU-3) and three NB cell lines (NB-1643, SHEP1 and LA1-55N). All 5 cancer cell lines were established from pediatric ALL or NB patients and were well-characterized for their expression of MDM2 and p53-status, as reported previously. All cell lines were grown in standard culture medium (RPMI 1640 containing 10% FBS, 2 mmol/L L-glutamine, 50 U penicillin and 50 μg/mL streptomycin) at 37° C. in a humidified atmosphere containing 5% CO2.
The cytotoxic effect of MX 69 and MX69 analogs on cancer cells was determined using the water-soluble tetrazolium salt (WST) assay. Briefly, cells cultured in 96-well microtiter plates were treated with different concentrations of AQ-101 for a 20-h period. WST (25 μg/well) was then added and incubation continued for an additional 4 h, after which optical density (OD) was read with a microplate reader (test wavelength of 450 nm; reference wavelength of 620 nm).

Row | Compound | IC50 (Homo sapiens, EU-1, EU-1) [µM] | IC50 (EU-1) [µM]
1 | Cc1ccc(NS(=O)(=O)c2ccc3c(c2)C2OCC[C@H]2C(c2ccc(C(=O)C(C)C)cc2)N3)cc1 (stereo in doubt) [Compound 69L85, 4-(4-isobutyrylphenyl)-N-(p-tolyl)-2,3,3a,4,5,9b-hexahydrofuro[3,2-c]quinoline-8-sulfonamide] | 3.33 | 
2 | CC(C)C(=O)c1ccc([C@@H]2Nc3ccc(S(=O)(=O)Nc4ccc(C(F)(F)F)c(C(F)(F)F)c4)cc3C3OCC[C@H]32)cc1 (stereo in doubt) [Compound 69L92, N-(3,4-bis(trifluoromethyl)phenyl)-4-(4-isobutyrylphenyl)-2,3,3a,4,5,9b-hexahydrofuro[3,2-c]quinoline-8-sulfonamide] | > 10 | 
3 | CCC(=O)c1cccc(NS(=O)(=O)c2ccc3c(c2)C2OCC[C@H]2C(c2ccc4c(c2)CCO4)N3)c1 (stereo in doubt) [Compound 69L127, 4-(2,3-dihydrobenzofuran-5-yl)-N-(3-propionylphenyl)-2,3,3a,4,5,9b-hexahydrofuro[3,2-c]quinoline-8-sulfonamide] | 4.8 | 
4 | Cc1ccc(N(C)S(=O)(=O)c2ccc3c(c2)[C@H]2OCC[C@H]2C(c2ccc(C(=O)C(C)C)cc2)N3C)cc1C (stereo in doubt) [Compound 69L131, N-(3,4-dimethylphenyl)-4-(4-isobutyrylphenyl)-N,5-dimethyl-2,3,3a,4,5,9b-hexahydrofuro[3,2-c]quinoline-8-sulfonamide] | 1.16 | 
5 | Cc1ccc(N(C)S(=O)(=O)c2ccc3c(c2)[C@H]2OCC[C@H]2[C@@H](c2ccc(C(=O)C(C)C)cc2)N3)cc1C (stereo in doubt) [Compound 69L132, N-(3,4-dimethylphenyl)-4-(4-isobutyrylphenyl)-N-methyl-2,3,3a,4,5,9b-hexahydrofuro[3,2-c]quinoline-8-sulfonamide] | 1.57 | 
6 | Cc1ccc(N(C)S(=O)(=O)c2ccc3c(c2)[C@H]2OCC[C@H]2[C@H](c2ccc(C(=O)C(C)C)cc2)N3)cc1C (stereo in doubt) [Compound 69L133, N-(3,4-dimethylphenyl)-4-(4-isobutyrylphenyl)-N-methyl-2,3,3a,4,5,9b-hexahydrofuro[3,2-c]quinoline-8-sulfonamide] | 1.58 | 
7 | Cc1ccc(S(=O)(=O)Nc2ccc3c(c2)[C@H]2OCC[C@H]2C(c2ccc(C(=O)C(C)C)cc2)N3)cc1C (stereo in doubt) [Compound 69L162, N-(4-(4-isobutyrylphenyl)-2,3,3a,4,5,9b-hexahydrofuro[3,2-c]quinolin-8-yl)-3,4-dimethylbenzenesulfonamide] | > 5 | 
8 | CC(=O)c1cccc(NS(=O)(=O)c2ccc3c(c2)C2NCC[C@H]2[C@H](c2ccc(C(=O)C(C)C)cc2)N3)c1 (stereo partly drawn) [69L130 cis] | > 10 | 
9 | CC(=O)c1cccc(NS(=O)(=O)c2ccc3c(c2)C2NCC[C@H]2[C@@H](c2ccc(C(=O)C(C)C)cc2)N3)c1 (stereo partly drawn) [69L130 trans] | > 10 | 
10 | COC(=O)c1ccc([C@@H]2Nc3ccc(S(=O)(=O)Nc4ccc(C)c(C)c4)cc3[C@H]3OCC[C@H]32)cc1 [Compound 69L2] | 3.5 to 5.3 | 
11 | COC(=O)c1ccc([C@@H]2Nc3ccc(S(=O)(=O)Nc4ccc(C)c(C)c4)cc3[C@H]3c4ccccc4C[C@H]32)cc1 [Compound 69L3] | 18.3 | 
12 | Cc1ccc(NS(=O)(=O)c2ccc3c(c2)[C@H]2OCC[C@H]2C(c2ccc(C(=O)O)cc2)N3)cc1C (stereo partly drawn) [Compound 69L4] | > 50 | 
13 | Cc1ccc(NS(=O)(=O)c2ccc3c(c2)[C@H]2OCC[C@H]2[C@H](c2ccc(C(=O)O)cc2)N3)cc1C [Compound 69L5] | > 50 | 
14 | Cc1ccc(NS(=O)(=O)c2ccc3c(c2)[C@H]2c4ccccc4C[C@H]2[C@H](c2ccc(C(=O)O)cc2)N3)cc1C [Compound 69L6] | 20.5 | 
15 | Cc1ccc(NS(=O)(=O)c2ccc3c(c2)[C@H]2c4ccccc4C[C@H]2[C@H](c2ccc(Br)cc2)N3)cc1C [Compound 69L7] | > 50 | 
16 | Cc1ccc(NS(=O)(=O)c2ccc3c(c2)[C@H]2OCC[C@H]2C(c2ccc(Br)cc2)N3)cc1C (stereo partly drawn) [Compound 69L8] | 3.61 | 
17 | COC(=O)c1ccc(C2Nc3ccc(S(=O)(=O)Nc4ccc(C)c(C)c4)cc3[C@H]3OCCC[C@@H]23)cc1 (stereo partly drawn) [Compound 69L9] | 4.56 | 
18 | Cc1ccc(NS(=O)(=O)c2ccc3c(c2)[C@H]2OCCC[C@H]2C(c2ccc(C(=O)O)cc2)N3)cc1C (stereo partly drawn) [Compound 69L10] | > 50 | 
19 | COC(=O)c1ccc([C@H]2Nc3ccc(S(=O)(=O)Nc4ccc(C)c(C)c4)cc3C3OCCC32)cc1 (stereo partly drawn) [Compound 69L12] | 3 to 3.9 | 
20 | COC(=O)c1ccc([C@@H]2Nc3ccc(S(=O)(=O)Nc4ccc(C)c(C)c4)cc3[C@H]3OCC[C@H]32)cc1 [Compound 69L13] |  | 6.4 to 9
21 | COC(=O)c1ccc([C@@]2(N)C[C@H](c3ccc(Cl)cc3)c3cc(S(=O)(=O)Nc4ccc(C)c(C)c4)ccc3N2)cc1 [Compound 69L14] | > 50 | 
22 | Cc1ccc(NS(=O)(=O)c2ccc3c(c2)[C@H]2OCC[C@H]2C(c2ccc(-n4ccccc4=O)cc2)N3)cc1C (stereo partly drawn) [Compound 69L15] | 17.9 | 
23 | COC(=O)c1ccc([C@@H]2Nc3ccc(S(=O)(=O)Nc4ccc(C)c(C)c4)cc3[C@H]3C=CC[C@H]32)cc1 [Compound 69L16] | 4.66 | 
24 | Cc1ccc(NS(=O)(=O)c2ccc3c(c2)[C@H]2OCC[C@H]2C(c2ccc(B4OCC(C)(C)CO4)cc2)N3)cc1C (stereo partly drawn) [Compound 69L17] | 8.69 | 
25 | Cc1ccc(NS(=O)(=O)c2ccc3c(c2)[C@H]2OCC[C@H]2C(c2ccc(B(O)O)cc2)N3)cc1C (stereo partly drawn) [Compound 69L18] | 14.7 | 
26 | Cc1ccc(NS(=O)(=O)c2ccc3c(c2)[C@H]2OCC[C@H]2C(c2ccc(S(C)(=O)=O)cc2)N3)cc1C (stereo partly drawn) [Compound 69L19] | 4.06 | 

Row | Compound | IC50 (Homo sapiens, EU-1, EU-1) [µM] | IC50 (EU-1) [µM]
27 | Cc1ccc(NS(=O)(=O)c2ccc3c(c2)[C@H]2C=CC[C@H]2[C@H](c2ccc(S(C)(=O)=O)cc2)N3)cc1C [Compound 69L21] | 6.18 | 
28 | COC(=O)c1ccc([C@@H]2Nc3cc(Cl)c(S(=O)(=O)Nc4ccc(C)c(C)c4)cc3[C@H]3C=CC[C@H]32)cc1 [Compound 69L22] | 19.3 | 
29 | Cc1ccc(NS(=O)(=O)c2ccc3c(c2Cl)[C@H]2C=CC[C@H]2[C@H](c2ccc(S(C)(=O)=O)cc2)N3)cc1C [Compound 69L23] | 23.4 | 
30 | Cc1ccc(NS(=O)(=O)c2cc3c(cc2Cl)N[C@@H](c2ccc(S(C)(=O)=O)cc2)[C@@H]2CC=C[C@H]32)cc1C [Compound 69L24] | > 50 | 
31 | COC(=O)c1ccc([C@H]2Nc3cc(Cl)c(S(=O)(=O)Nc4ccc(C)c(C)c4)cc3[C@H]3OCC[C@@H]23)cc1 [Compound 69L25] | > 50 | 
32 | COC(=O)c1ccc([C@@H]2Nc3cc(Cl)c(S(=O)(=O)Nc4ccc(C)c(C)c4)cc3[C@H]3OCC[C@H]32)cc1 [Compound 69L26] | > 50 | 
33 | COC(=O)c1ccc([C@H]2Nc3ccc(S(=O)(=O)Nc4ccc(C)c(C)c4)cc3[C@H]3OCC[C@@H]23)cc1 [Compound 69L28] | 8.4 to 11.9 | 
34 | COC(=O)c1ccc([C@@H]2Nc3ccc(S(=O)(=O)Nc4ccc(C)c(C)c4)cc3[C@@H]3OCC[C@H]23)cc1 [Compound 69L29] | 2 to 2.7 | 
35 | Cc1ccc(NS(=O)(=O)c2ccc3c(c2)[C@H]2OCC[C@H]2C(c2ccc(C(C)C)cc2)N3)cc1C (stereo partly drawn) [Compound 69L31] | 4.24 | 
36 | CCO[C@H]1C[C@H](c2ccc(C(=O)OC)cc2)Nc2ccc(S(=O)(=O)Nc3ccc(C)c(C)c3)cc21 [Compound 69L32] | 7.28 | 
37 | COC(=O)c1ccc(C2Nc3c(Cl)cc(S(=O)(=O)Nc4ccc(C)c(C)c4)cc3C3OCC[C@@H]23)cc1 (stereo partly drawn) [Compound 69L33] | > 50 | 
38 | COC(=O)c1ccc(C2Nc3ccc(S(=O)(=O)Nc4ccc(C)c(C)c4)cc3C3NCC[C@@H]23)cc1 (stereo partly drawn) [Compound 69L34] | 3.44 | 
39 | COC(=O)c1ccc([C@H]2Nc3ccc(S(=O)(=O)Nc4ccc(C)c(C)c4)cc3C3NCC[C@H]32)cc1 (stereo partly drawn) [Compound 69L35] | 4.86 | 
40 | Cc1ccc(NS(=O)(=O)c2ccc3c(c2)C2OCC[C@H]2[C@@H](c2c[nH]c4ccccc24)N3)cc1C (stereo partly drawn) [Compound 69L36] | 9.2 | 
41 | Cc1ccc(NS(=O)(=O)c2ccc3c(c2)C2NCC[C@H]2C(c2c[nH]c4ccccc24)N3)cc1C (stereo partly drawn) [Compound 69L37] | 4.81 | 
42 | Cc1ccc(NS(=O)(=O)c2ccc3c(c2)C(O)C[C@H](c2ccc(C(=O)O)cc2)N3)cc1C (stereo partly drawn) [Compound 69L40] | > 50 | 
43 | Cc1ccc(NS(=O)(=O)c2ccc3c(c2)C2NCC[C@H]2[C@H](c2ccc(C(=O)O)cc2)N3)cc1C (stereo partly drawn) [Compound 69L41] | > 50 | 
44 | Cc1ccc(NS(=O)(=O)c2ccc3c(c2)C2[C@@H](CCN2C(=O)OC(C)(C)C)C(c2ccc(S(C)(=O)=O)cc2)N3)cc1C (stereo partly drawn) [Compound 69L42] | 19.9 | 
45 | Cc1ccc(NS(=O)(=O)c2ccc3c(c2)C2NCC[C@H]2[C@@H](c2ccc(S(C)(=O)=O)cc2)N3)cc1C (stereo partly drawn) [Compound 69L43] | 12 | 
46 | Cc1ccc(NS(=O)(=O)c2ccc3c(c2)C2NCC[C@H]2[C@H](c2ccc(S(C)(=O)=O)cc2)N3)cc1C (stereo partly drawn) [Compound 69L44] | 44.9 | 
47 | CCOC1C[C@@H](c2ccc(C(C)=O)cc2)Nc2ccc(S(=O)(=O)Nc3ccc(C)c(C)c3)cc21 (stereo partly drawn) [Compound 69L46] | 6.5 | 
48 | CC(=O)c1ccc([C@@H]2CC(O)c3cc(S(=O)(=O)Nc4ccc(C)c(C)c4)ccc3N2)cc1 (stereo partly drawn) [Compound 69L47] | 2.1 | 
49 | CC(=O)c1ccc([C@H]2Nc3ccc(S(=O)(=O)Nc4ccc(C)c(C)c4)cc3C3NCC[C@H]32)cc1 (stereo partly drawn) [Compound 69L49] | 4.6 | 
50 | CC(=O)c1ccc([C@@H]2Nc3ccc(S(=O)(=O)Nc4ccc(C)c(C)c4)cc3C3NCC[C@H]32)cc1 (stereo partly drawn) [Compound 69L50] | 4.1 | 
51 | CC(=O)Nc1ccc(C2Nc3ccc(S(=O)(=O)Nc4ccc(C)c(C)c4)cc3C3OCC[C@@H]23)cc1 (stereo partly drawn) [Compound 69L51] | 4.5 | 
